Measured values published in PubChem BioAssay AID248 (DTP/NCI, 2004).
Values joined by “and” are separate entries in the source; they are usually repeats but may differ in a detail not shown here. Equal entries are not always repeated. Toxic doses and inconclusive results are not listed.

Tested on: L1210 leukemia ip in BDF1 mice, survival T/C
Experiment: NCI In Vivo Anticancer Drug Screen. Data for tumor model L1210 Leukemia (intraperitoneal) in B6D2F1 (BDF1) mice
Conditions: endpoint: mean survival time, higher = longer survival
Summary of the method: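 Tumor cells were implanted, animals were treated, and survival was followed. The result divides the treated measurement by the vehicle-control measurement.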

[1] = dose: 400.0 mg/kg/injection, schedule: Q04DX003 (ip), vehicle: saline
[2] = dose: 100.0 mg/kg/injection, schedule: Q01DX001 (ip), vehicle: saline
[3] = dose: 100.0 mg/kg/injection, schedule: Q01DX009 (ip), vehicle: saline
[4] = dose: 100.0 mg/kg/injection, schedule: Q04DX003 (ip), vehicle: saline
[5] = dose: 200.0 mg/kg/injection, schedule: Q01DX001 (ip), vehicle: saline
[6] = dose: 200.0 mg/kg/injection, schedule: Q01DX009 (ip), vehicle: saline
[7] = dose: 200.0 mg/kg/injection, schedule: Q04DX003 (ip), vehicle: saline
[8] = dose: 400.0 mg/kg/injection, schedule: Q01DX001 (ip), vehicle: saline
[9] = dose: 100.0 mg/kg/injection, schedule: Q01DX009 (ip), vehicle: saline with Tween-80
[10] = dose: 100.0 mg/kg/injection, schedule: Q04DX003 (ip), vehicle: saline with Tween-80
[11] = dose: 200.0 mg/kg/injection, schedule: Q01DX009 (ip), vehicle: saline with Tween-80
[12] = dose: 200.0 mg/kg/injection, schedule: Q04DX003 (ip), vehicle: saline with Tween-80
[13] = dose: 400.0 mg/kg/injection, schedule: Q01DX009 (ip), vehicle: saline with Tween-80
[14] = dose: 400.0 mg/kg/injection, schedule: Q04DX003 (ip), vehicle: saline with Tween-80
[15] = dose: 100.0 mg/kg/injection, schedule: Q01DX009 (ip), vehicle: Klucel (hydroxypropylcellulose) (HPC)
[16] = dose: 100.0 mg/kg/injection, schedule: Q04DX003 (ip), vehicle: Klucel (hydroxypropylcellulose) (HPC)
[17] = dose: 200.0 mg/kg/injection, schedule: Q01DX009 (ip), vehicle: Klucel (hydroxypropylcellulose) (HPC)
[18] = dose: 200.0 mg/kg/injection, schedule: Q04DX003 (ip), vehicle: Klucel (hydroxypropylcellulose) (HPC)
[19] = dose: 400.0 mg/kg/injection, schedule: Q01DX009 (ip), vehicle: Klucel (hydroxypropylcellulose) (HPC)
[20] = dose: 400.0 mg/kg/injection, schedule: Q04DX003 (ip), vehicle: Klucel (hydroxypropylcellulose) (HPC)
[21] = dose: 50.0 mg/kg/injection, schedule: Q01DX009 (ip), vehicle: saline
[22] = dose: 100.0 mg/kg/injection, schedule: Q04DX002 (ip), vehicle: Klucel (hydroxypropylcellulose) (HPC)
[23] = dose: 200.0 mg/kg/injection, schedule: Q04DX002 (ip), vehicle: Klucel (hydroxypropylcellulose) (HPC)
[24] = dose: 400.0 mg/kg/injection, schedule: Q04DX002 (ip), vehicle: Klucel (hydroxypropylcellulose) (HPC)

COC1CC(NC(=O)N(C)N=O)C(O)C(C)O1 (centres undefined)
T/C [1]: 106 % of control | T/C (dose: 500.0 mg/kg/injection, schedule: Q04DX003 (ip), vehicle: saline): 101 % of control

O=S(=O)(/C(Br)=C\c1ccccc1)c1ccccc1
T/C [2]: 103 % of control | T/C [3]: 104 % of control | T/C [4]: 98 % of control | T/C [5]: 102 % of control | T/C [6]: 110 % of control | T/C [7]: 101 % of control | T/C [8]: 102 % of control | T/C (dose: 400.0 mg/kg/injection, schedule: Q01DX009 (ip), vehicle: saline): 98 % of control | T/C [1]: 98 % of control

O=S(=O)(O)C(Nc1ccccc1)c1ccccc1 (centres undefined)
T/C [9]: 100 % of control | T/C [10]: 97 % of control | T/C (dose: 150.0 mg/kg/injection, schedule: Q01DX001 (ip), vehicle: water): 96 % of control | T/C (dose: 162.0 mg/kg/injection, schedule: Q01DX Z (ip), vehicle: carboxymethylcellulose (CMC)): 95 % of control | T/C [11]: 96 % of control | T/C [12]: 101 % of control | T/C (dose: 300.0 mg/kg/injection, schedule: Q01DX001 (ip), vehicle: water): 100 % of control | T/C (dose: 324.0 mg/kg/injection, schedule: Q01DX Z (ip), vehicle: carboxymethylcellulose (CMC)): 94 % of control | T/C [13]: 101 % of control | T/C (dose: 400.0 mg/kg/injection, schedule: Q01DX015 (ip), vehicle: water): 119 % of control | T/C [14]: 93 % of control | T/C (dose: 600.0 mg/kg/injection, schedule: Q01DX001 (ip), vehicle: water): 96 % of control | T/C (dose: 600.0 mg/kg/injection, schedule: Q01DX015 (ip), vehicle: water): 104 % of control | T/C (dose: 1200.0 mg/kg/injection, schedule: Q01DX001 (ip), vehicle: water): 116 % of control

O=C(NC(=O)C(Cl)Cl)Nc1ccc2c(c1)Cc1ccccc1-2
T/C (dose: 100.0 mg/kg/injection, schedule: Q01DX001 (ip), vehicle: Klucel (hydroxypropylcellulose) (HPC)): 95 % of control | T/C [15]: 100 % of control | T/C [16]: 102 % of control | T/C (dose: 200.0 mg/kg/injection, schedule: Q01DX001 (ip), vehicle: Klucel (hydroxypropylcellulose) (HPC)): 100 % of control | T/C [17]: 98 % of control | T/C [18]: 96 % of control | T/C (dose: 400.0 mg/kg/injection, schedule: Q01DX001 (ip), vehicle: Klucel (hydroxypropylcellulose) (HPC)): 100 % of control | T/C [19]: 104 % of control | T/C [20]: 96 % of control

Cc1[nH]c(=S)[nH]c(=O)c1CCC(=O)O
T/C [9]: 96 % of control | T/C [16]: 94 % of control | T/C [11]: 98 % of control | T/C [18]: 102 % of control | T/C [13]: 98 % of control | T/C [20]: 102 % of control

C=CCNC(=O)C1C2C=CC(C2)C1C(=O)O (centres undefined)
T/C [10]: 98 % of control | T/C [12]: 104 % of control | T/C [14]: 98 % of control

Cc1cc(C)c(-c2c(C)cc(C)c(N)c2C)c(C)c1N
T/C (dose: 12.5 mg/kg/injection, schedule: Q01DX009 (ip), vehicle: Klucel (hydroxypropylcellulose) (HPC)): 90 % of control | T/C (dose: 25.0 mg/kg/injection, schedule: Q01DX009 (ip), vehicle: Klucel (hydroxypropylcellulose) (HPC)): 93 % of control | T/C (dose: 50.0 mg/kg/injection, schedule: Q01DX009 (ip), vehicle: Klucel (hydroxypropylcellulose) (HPC)): 103 % of control | T/C [16]: 109 % of control | T/C [18]: 95 % of control | T/C [20]: 97 % of control

CCOCC(O)(c1ccc(Cl)cc1)c1ccc(Cl)cc1
T/C [10]: 106 % of control | T/C [12]: 95 % of control | T/C [14]: 102 % of control

COc1ccc(/C=C/C(=O)c2ccc3c(c2)OCO3)cc1O
T/C [21]: 100 % of control | T/C [3]: 93 % of control | T/C [4]: 93 % of control | T/C [6]: 100 % of control | T/C [7]: 97 % of control | T/C (dose: 300.0 mg/kg/injection, schedule: Q01DX009 (ip), vehicle: saline): 120 % of control | T/C [1]: 87 % of control

Cc1ccc(S(=O)(=O)On2cccc2C#N)cc1
T/C (dose: 25.0 mg/kg/injection, schedule: Q01DX009 (ip), vehicle: saline with Tween-80): 102 % of control | T/C (dose: 50.0 mg/kg/injection, schedule: Q01DX009 (ip), vehicle: saline with Tween-80): 94 % of control and 96 % of control | T/C [9]: 98 % of control | T/C [11]: 97 % of control and 102 % of control

Oc1ccc(-c2nnc(-c3ccc(O)cc3)nn2)cc1
T/C [22]: 91 % of control | T/C [23]: 94 % of control | T/C [24]: 102 % of control

Cc1cc(Cl)cc(Cl)c1OCC(=O)O
T/C [22]: 98 % of control | T/C [23]: 95 % of control | T/C [24]: 95 % of control

CCOC(=O)C1C(=O)CC(=O)C(C(=O)OCC)C1c1ccc(OC)c(OC)c1OC (centres undefined)
T/C [22]: 103 % of control | T/C [23]: 101 % of control | T/C [24]: 113 % of control

CN(C)c1ccc(/C=N\NC(=S)Nc2ccc3cn[nH]c3c2)cc1
T/C (dose: 50.0 mg/kg/injection, schedule: Q01DX001 (ip), vehicle: carboxymethylcellulose (CMC)): 102 % of control | T/C (dose: 100.0 mg/kg/injection, schedule: Q01DX001 (ip), vehicle: carboxymethylcellulose (CMC)): 102 % of control | T/C (dose: 200.0 mg/kg/injection, schedule: Q01DX001 (ip), vehicle: carboxymethylcellulose (CMC)): 111 % of control

NC(=O)c1c([N+](=O)[O-])ncn1C1OC(CO)C(O)C1O (centres undefined)
T/C [2]: 98 % of control | T/C [5]: 102 % of control | T/C [8]: 96 % of control

CC(/C=C/C=C/c1ccccc1)=N\O
T/C [15]: 98 % of control | T/C [17]: 90 % of control | T/C [19]: 96 % of control

CN(C)CCOC(=O)c1ccccc1CCl
T/C (dose: 10.0 mg/kg/injection, schedule: Q01DX009 (ip), vehicle: saline): 101 % of control | T/C (dose: 20.0 mg/kg/injection, schedule: Q01DX009 (ip), vehicle: saline): 98 % of control | T/C (dose: 40.0 mg/kg/injection, schedule: Q01DX009 (ip), vehicle: saline): 98 % of control

COc1cccc(N=Nc2c(N)nc(N)[nH]c2=O)c1
T/C [21]: 90 % of control | T/C (dose: 50.0 mg/kg/injection, schedule: Q04DX003 (ip), vehicle: saline): 101 % of control | T/C [2]: 104 % of control | T/C [3]: 92 % of control | T/C [4]: 98 % of control | T/C [5]: 107 % of control | T/C [6]: 95 % of control | T/C [7]: 102 % of control | T/C [8]: 104 % of control

CC1SCC(NC(=O)N(CCCl)N=O)CS1 (centres undefined)
T/C (dose: 8.0 mg/kg/injection, schedule: Q01DX001 (ip), vehicle: saline with Tween-80): 150 % of control | T/C (dose: 12.0 mg/kg/injection, schedule: Q01DX001 (ip), vehicle: saline with Tween-80): 264 % of control | T/C (dose: 18.0 mg/kg/injection, schedule: Q01DX001 (ip), vehicle: saline with Tween-80): 389 % of control | T/C (dose: 26.0 mg/kg/injection, schedule: Q01DX001 (ip), vehicle: saline with Tween-80): 368 % of control | T/C (dose: 60.0 mg/kg/injection, schedule: Q01DX001 (ip), vehicle: saline with Tween-80): 104 % of control

Cc1cc(C)c(C(=O)c2ccc([N+](=O)[O-])cc2)c(C)c1
T/C [15]: 98 % of control | T/C [16]: 105 % of control | T/C [17]: 86 % of control | T/C [18]: 95 % of control | T/C [19]: 86 % of control | T/C [20]: 94 % of control
